Measured values: patent publication US4303655A, “3,7-Disubstituted-3-cephem-4-carboxylic acid compounds” (Fujisawa Pharmaceutical Co., Ltd., priority 1976, dated 1981)
Values after ≈ are worked out from the molar mass of the structure shown.

Test system: E. Coli 324
Experiment: In vitro antibacterial activity by the two-fold agar-plate dilution method
Assay type: cell-based
Settings: Escherichia coli, HI-agar, overnight culture 10^8 viable cells per ml., 37° C. for 20 hours, read-out: MIC (minimal inhibitory concentration)
Method: In vitro antibacterial activity was determined by the two-fold agar-plate dilution method as described below. One loopful of an overnight culture of each test strain in Trypticase-soy broth (10^8 viable cells per ml.) was streaked on heart infusion agar (HI-agar) containing graded concentrations of antibiotics, and the minimal inhibitory concentration (MIC) was expressed in terms of μg/ml. after incubation at 37° C. for 20 hours.

Structure (SMILES)	MIC [µg/mL]
Nc1nc(C(=O)C(=O)NC2C(=O)N3C(C(=O)O)=C(CSc4nncs4)CSC23)cs1 (centres unmarked) [(2)]	0.05 (≈ 0.103 µM)
Cn1cnnc1SCC1=C(C(=O)O)N2C(=O)C(NC(=O)C(=O)c3csc(N)n3)C2SC1 (centres unmarked) [(5)]	0.05 (≈ 0.104 µM)
Cc1nnc(SCC2=C(C(=O)O)N3C(=O)C(NC(=O)C(=O)c4csc(N)n4)C3SC2)s1 (centres unmarked) [(3)]	0.05 (≈ 0.1 µM)

Results, then the compound that gave them:

MIC [µg/mL]	Structure (SMILES)
0.05 (≈ 0.104 µM)	Cc1nnc(SCC2=C(C(=O)O)N3C(=O)C(NC(=O)C(=O)c4csc(N)n4)C3SC2)o1 (centres unmarked) [(4)]
0.05 (≈ 0.104 µM)	Cn1nnnc1SCC1=C(C(=O)O)N2C(=O)C(NC(=O)C(=O)c3csc(N)n3)C2SC1 (centres unmarked) [(1)]
